Experimental data: ChEMBL document CHEMBL3885881, “DrugMatrix”

Organism: Rattus norvegicus
Assay: DrugMatrix - Regimen: Daily Repeat
Format: toxicity, organism-based, Sprague-Dawley
Design: regimen Daily Repeat, gender Male, age 6-8 weeks
Conditions: in vivo, po, route oral GAVAGE, vehicle .5 % CMC; for ABSOLUTE BASOPHIL / ABSOLUTE EOSINOPHIL / ABSOLUTE LYMPHOCYTE / ABSOLUTE MONOCYTE / ABSOLUTE SEGMENTED NEUTROPHIL / BASOPHIL / EOSINOPHIL / ERYTHROCYTE COUNT / HEMATOCRIT / HEMOGLOBIN / LEUKOCYTE COUNT / LYMPHOCYTE / MEAN CORPUSCULAR HEMOGLOBIN / MEAN CORPUSCULAR HEMOGLOBIN CONCENTRATION / MEAN CORPUSCULAR VOLUME / MONOCYTE / NEUTROPHIL / NUCLEATED RED BLOOD CELLS / PLATELET COUNT: tissue Blood; for ALANINE AMINOTRANSFERASE / ALBUMIN / ALKALINE PHOSPHATASE / ASPARTATE AMINOTRANSFERASE / BLOOD UREA NITROGEN / CARBON DIOXIDE / CHLORIDE / CHOLESTEROL / CREATINE PHOSPHOKINASE / CREATININE / GLUCOSE / LACTATE DEHYDROGENASE / LIPASE / PHOSPHORUS / POTASSIUM / SODIUM / TOTAL BILIRUBIN / TOTAL PROTEIN / URIC ACID: tissue Plasma
[1] = 500 mg/kg, 120 h, dose level Low, time 5 day
[2] = 1500 mg/kg, 72 h, dose level High, time 3 day
[3] = 1500 mg/kg, 120 h, dose level High, time 5 day

CC(C)(Sc1cc(C(C)(C)C)c(O)c(C(C)(C)C)c1)Sc1cc(C(C)(C)C)c(O)c(C(C)(C)C)c1 [PROBUCOL]
ABSOLUTE BASOPHIL [1]: 0 CELLS/uL
ABSOLUTE EOSINOPHIL [1]: 211 CELLS/uL
ABSOLUTE LYMPHOCYTE [1]: 10866.33 CELLS/uL
ABSOLUTE MONOCYTE [1]: 0 CELLS/uL
ABSOLUTE SEGMENTED NEUTROPHIL [1]: 1022.67 CELLS/uL
BASOPHIL [1]: 0%
EOSINOPHIL [1]: 1.67%
ERYTHROCYTE COUNT [1]: 5.74 x10E6/uL
HEMATOCRIT [1]: 36.53%
HEMOGLOBIN [1]: 13.67 G/DL
LEUKOCYTE COUNT [1]: 12.1 x10E3/uL
LYMPHOCYTE [1]: 90%
MEAN CORPUSCULAR HEMOGLOBIN [1]: 23.87 pg
MEAN CORPUSCULAR HEMOGLOBIN CONCENTRATION [1]: 37.43 G/DL
MEAN CORPUSCULAR VOLUME [1]: 63.7 fL
MONOCYTE [1]: 0%
NEUTROPHIL [1]: 8.33%
NUCLEATED RED BLOOD CELLS [1]: 0 /100WBC
PLATELET COUNT [1]: 1159.33 x10E3/uL
ALANINE AMINOTRANSFERASE [1]: 45.67 u/L
ALBUMIN [1]: 4.33 G/DL
ALKALINE PHOSPHATASE [1]: 362 u/L
ASPARTATE AMINOTRANSFERASE [1]: 76.33 u/L
BLOOD UREA NITROGEN [1]: 15.33 mg/dL
CARBON DIOXIDE [1]: 25.67 mmol/L
CHLORIDE [1]: 102 MEQ/L
CHOLESTEROL [1]: 70.33 mg/dL
CREATINE PHOSPHOKINASE [1]: 180.67 u/L
CREATININE [1]: 0.2 mg/dL
GLUCOSE [1]: 163.67 mg/dL
LACTATE DEHYDROGENASE [1]: 162.67 u/L
LIPASE [1]: 9 u/L
PHOSPHORUS [1]: 11.63 mg/dL
POTASSIUM [1]: 6.21 MEQ/L
SODIUM [1]: 144 MEQ/L
TOTAL BILIRUBIN [1]: 0.2 mg/dL
TOTAL PROTEIN [1]: 6.1 G/DL
URIC ACID [1]: 1.83 mg/dL
ABSOLUTE BASOPHIL [2]: 0 CELLS/uL
ABSOLUTE EOSINOPHIL [2]: 183 CELLS/uL
ABSOLUTE LYMPHOCYTE [2]: 12835.33 CELLS/uL
ABSOLUTE MONOCYTE [2]: 38 CELLS/uL
ABSOLUTE SEGMENTED NEUTROPHIL [2]: 1443.67 CELLS/uL
BASOPHIL [2]: 0%
EOSINOPHIL [2]: 1.33%
ERYTHROCYTE COUNT [2]: 5.49 x10E6/uL
HEMATOCRIT [2]: 34.77%
HEMOGLOBIN [2]: 13.37 G/DL
LEUKOCYTE COUNT [2]: 14.5 x10E3/uL
LYMPHOCYTE [2]: 88.33%
MEAN CORPUSCULAR HEMOGLOBIN [2]: 24.37 pg
MEAN CORPUSCULAR HEMOGLOBIN CONCENTRATION [2]: 38.47 G/DL
MEAN CORPUSCULAR VOLUME [2]: 63.33 fL
MONOCYTE [2]: 0.33%
NEUTROPHIL [2]: 10%
NUCLEATED RED BLOOD CELLS [2]: 0 /100WBC
PLATELET COUNT [2]: 1374.67 x10E3/uL
ALANINE AMINOTRANSFERASE [2]: 49.33 u/L
ALBUMIN [2]: 4.2 G/DL
ALKALINE PHOSPHATASE [2]: 412 u/L
ASPARTATE AMINOTRANSFERASE [2]: 77.33 u/L
BLOOD UREA NITROGEN [2]: 14.67 mg/dL
CARBON DIOXIDE [2]: 27.33 mmol/L
CHLORIDE [2]: 100 MEQ/L
CHOLESTEROL [2]: 65.67 mg/dL
CREATINE PHOSPHOKINASE [2]: 249.33 u/L
CREATININE [2]: 0.19 mg/dL
GLUCOSE [2]: 153.67 mg/dL
LACTATE DEHYDROGENASE [2]: 144 u/L
LIPASE [2]: 9 u/L
PHOSPHORUS [2]: 12.87 mg/dL
POTASSIUM [2]: 7.14 MEQ/L
SODIUM [2]: 143.67 MEQ/L
TOTAL BILIRUBIN [2]: 0.17 mg/dL
TOTAL PROTEIN [2]: 5.83 G/DL
URIC ACID [2]: 1.67 mg/dL
ABSOLUTE BASOPHIL [3]: 0 CELLS/uL
ABSOLUTE EOSINOPHIL [3]: 76.67 CELLS/uL
ABSOLUTE LYMPHOCYTE [3]: 11157.33 CELLS/uL
ABSOLUTE MONOCYTE [3]: 39 CELLS/uL
ABSOLUTE SEGMENTED NEUTROPHIL [3]: 1027 CELLS/uL
BASOPHIL [3]: 0%
EOSINOPHIL [3]: 0.67%
ERYTHROCYTE COUNT [3]: 5.53 x10E6/uL
HEMATOCRIT [3]: 34.87%
HEMOGLOBIN [3]: 13.07 G/DL
LEUKOCYTE COUNT [3]: 12.3 x10E3/uL
LYMPHOCYTE [3]: 90.67%
MEAN CORPUSCULAR HEMOGLOBIN [3]: 23.63 pg
MEAN CORPUSCULAR HEMOGLOBIN CONCENTRATION [3]: 37.5 G/DL
MEAN CORPUSCULAR VOLUME [3]: 63.03 fL
MONOCYTE [3]: 0.33%
NEUTROPHIL [3]: 8.33%
NUCLEATED RED BLOOD CELLS [3]: 0 /100WBC
PLATELET COUNT [3]: 1307 x10E3/uL
ALANINE AMINOTRANSFERASE [3]: 47.67 u/L
ALBUMIN [3]: 4.33 G/DL
ALKALINE PHOSPHATASE [3]: 423.67 u/L
ASPARTATE AMINOTRANSFERASE [3]: 74 u/L
BLOOD UREA NITROGEN [3]: 15.33 mg/dL
CARBON DIOXIDE [3]: 26.33 mmol/L
CHLORIDE [3]: 102.33 MEQ/L
CHOLESTEROL [3]: 63 mg/dL
CREATINE PHOSPHOKINASE [3]: 227.67 u/L
CREATININE [3]: 0.2 mg/dL
GLUCOSE [3]: 158.67 mg/dL
LACTATE DEHYDROGENASE [3]: 174.33 u/L
LIPASE [3]: 8.33 u/L
PHOSPHORUS [3]: 12.1 mg/dL
POTASSIUM [3]: 6.79 MEQ/L
SODIUM [3]: 145.27 MEQ/L
TOTAL BILIRUBIN [3]: 0.2 mg/dL
TOTAL PROTEIN [3]: 6.13 G/DL
URIC ACID [3]: 1.63 mg/dL
